Measured values reported in PubChem BioAssay AID192 (DTP/NCI, 2004).
Inconclusive results and toxic doses are left out. The calls were made as follows: active = survival T/C of 150% or more; inactive = T/C below 125% in these data.

System: BDF1 mice, B16 melanoma ip, median survival T/C
Assay: NCI In Vivo Anticancer Drug Screen. Data for tumor model B16 Melanoma (intraperitoneal) in B6D2F1 (BDF1) mice
Details: endpoint: median survival time, higher = longer survival
Procedure, shortened: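 Vehicle-treated animals serve as the reference (C); treated animals (T) are scored for survival or tumor size after tumor transplantation.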

Measured: T/C

Cn1ccc(=Nc2ccc(NC(=O)c3ccc(N=c4ccn(C)c5ccc([N+](=O)[O-])cc45)cc3)cc2)cc1
inactive: dose: 3.13 mg/kg/injection, schedule: Q01DX009 (ip), vehicle: other 101 % of control | dose: 6.25 mg/kg/injection, schedule: Q01DX009 (ip), vehicle: other 101 % of control | dose: 12.5 mg/kg/injection, schedule: Q01DX009 (ip), vehicle: other 100 % of control | dose: 25.0 mg/kg/injection, schedule: Q01DX009 (ip), vehicle: other 97 % of control

C[n+]1noc([O-])c1-c1ccccc1
inactive: dose: 50.0 mg/kg/injection, schedule: Q01DX009 (ip), vehicle: saline with Tween-80 101 % of control | dose: 100.0 mg/kg/injection, schedule: Q01DX009 (ip), vehicle: saline with Tween-80 97 % of control | dose: 200.0 mg/kg/injection, schedule: Q01DX009 (ip), vehicle: saline with Tween-80 103 % of control

O=C(OCCOCCN1CCCCC1)N1c2ccccc2Sc2cccnc21
inactive: dose: 3.12 mg/kg/injection, schedule: Q01DX009 (ip), vehicle: saline 100 % of control | dose: 12.5 mg/kg/injection, schedule: Q01DX009 (ip), vehicle: saline 100 % of control | dose: 25.0 mg/kg/injection, schedule: Q01DX009 (ip), vehicle: saline 102 % of control

COc1ccc(Cl)cc1NC(=O)c1ccc(Cl)cc1Cl
inactive: dose: 100.0 mg/kg/injection, schedule: Q04DX003 (ip), vehicle: saline with Tween-80 100 % of control | dose: 200.0 mg/kg/injection, schedule: Q04DX003 (ip), vehicle: saline with Tween-80 97 % of control | dose: 400.0 mg/kg/injection, schedule: Q04DX003 (ip), vehicle: saline with Tween-80 95 % of control

O=c1nc(NC(=S)Nc2ccn(C3OC(CO)C(O)C3O)c(=O)n2)ccn1C1OC(CO)C(O)C1O (centres undefined)
inactive: dose: 4.0 mg/kg/injection, schedule: Q01DX009 (ip), vehicle: saline sonified 97 % of control | dose: 8.0 mg/kg/injection, schedule: Q01DX009 (ip), vehicle: saline sonified 102 % of control | dose: 8.0 mg/kg/injection, schedule: Q01DX009 (ip), vehicle: saline with Tween-80 95 % of control | dose: 16.0 mg/kg/injection, schedule: Q01DX009 (ip), vehicle: saline sonified 100 % of control | dose: 16.0 mg/kg/injection, schedule: Q01DX009 (ip), vehicle: saline with Tween-80 108 % of control | dose: 32.0 mg/kg/injection, schedule: Q01DX009 (ip), vehicle: saline sonified 102 % of control | dose: 32.0 mg/kg/injection, schedule: Q01DX009 (ip), vehicle: saline with Tween-80 95 % of control | dose: 64.0 mg/kg/injection, schedule: Q01DX009 (ip), vehicle: saline with Tween-80 104 % of control

O=c1c2ccccc2[nH]c(=S)n1C1CCCCC1
inactive: dose: 100.0 mg/kg/injection, schedule: Q01DX009 (ip), vehicle: Klucel (hydroxypropylcellulose) (HPC) 90 % of control | dose: 200.0 mg/kg/injection, schedule: Q01DX009 (ip), vehicle: Klucel (hydroxypropylcellulose) (HPC) 90 % of control

CC[CH](C)[Hg][c]1cccc2ccccc12 (centres undefined)
inactive: dose: 25.0 mg/kg/injection, schedule: Q01DX009 (ip), vehicle: Klucel (hydroxypropylcellulose) (HPC) 105 % of control | dose: 50.0 mg/kg/injection, schedule: Q01DX009 (ip), vehicle: Klucel (hydroxypropylcellulose) (HPC) 91 % of control

O=S1(=O)CC(Cl)C(Cl)C1 (centres undefined)
inactive: dose: 3.12 mg/kg/injection, schedule: Q01DX009 (ip), vehicle: Klucel (hydroxypropylcellulose) (HPC) 91 % of control | dose: 12.5 mg/kg/injection, schedule: Q01DX009 (ip), vehicle: Klucel (hydroxypropylcellulose) (HPC) 96 % of control

CN(C)NCCN1CCN(CCCN2c3ccccc3Sc3ccc(C(F)(F)F)cc32)CC1
inactive: dose: 3.75 mg/kg/injection, schedule: Q01DX009 (ip), vehicle: saline 93 % of control | dose: 7.5 mg/kg/injection, schedule: Q01DX009 (ip), vehicle: saline 112 % of control

C=C(C)C12OC3(c4ccccc4)OC1C1C4OC4(CO)C(O)C4(O)C(=O)C(C)=CC4C1(O3)C(C)C2OC(=O)/C=C/C=C/c1ccccc1 (centres undefined)
inactive: dose: 6.3 micrograms/kg/injection, schedule: Q01DX009 (ip), vehicle: saline with Tween-80 107 % of control | dose: 12.5 micrograms/kg/injection, schedule: Q01DX009 (ip), vehicle: saline with Tween-80 96 % of control | dose: 25.0 micrograms/kg/injection, schedule: Q01DX009 (ip), vehicle: alcohol 90 % of control | dose: 25.0 micrograms/kg/injection, schedule: Q01DX009 (ip), vehicle: saline with Tween-80 96 % of control | dose: 50.0 micrograms/kg/injection, schedule: Q01DX009 (ip), vehicle: alcohol 91 % of control | dose: 50.0 micrograms/kg/injection, schedule: Q01DX009 (ip), vehicle: saline with Tween-80 96 % of control | dose: 100.0 micrograms/kg/injection, schedule: Q01DX009 (ip), vehicle: alcohol 88 % of control | dose: 100.0 micrograms/kg/injection, schedule: Q01DX009 (ip), vehicle: saline with Tween-80 96 % of control

COc1ccc2c(c1)C(OC)C1c3c(cc4c(c3-2)OCO4)CCN1C (centres undefined)
inactive: dose: 1.0 mg/kg/injection, schedule: Q01DX009 (ip), vehicle: acid diluted with saline 123 % of control | dose: 2.0 mg/kg/injection, schedule: Q01DX009 (ip), vehicle: acid diluted with saline 89 % of control
